IC50 data for 17 compounds are collected here from patent US20260232670A1, “TYRO3 SELECTIVE INHIBITORS AND USES THEREOF” (THE UNIVERSITY OF NORTH CAROLINA AT CHAPEL HILL, priority 2023, published 2026).

The target in one assay is T1, TYRO3 (Homo sapiens, UniProt Q06418).
T1 sequence (Q06418 41-890): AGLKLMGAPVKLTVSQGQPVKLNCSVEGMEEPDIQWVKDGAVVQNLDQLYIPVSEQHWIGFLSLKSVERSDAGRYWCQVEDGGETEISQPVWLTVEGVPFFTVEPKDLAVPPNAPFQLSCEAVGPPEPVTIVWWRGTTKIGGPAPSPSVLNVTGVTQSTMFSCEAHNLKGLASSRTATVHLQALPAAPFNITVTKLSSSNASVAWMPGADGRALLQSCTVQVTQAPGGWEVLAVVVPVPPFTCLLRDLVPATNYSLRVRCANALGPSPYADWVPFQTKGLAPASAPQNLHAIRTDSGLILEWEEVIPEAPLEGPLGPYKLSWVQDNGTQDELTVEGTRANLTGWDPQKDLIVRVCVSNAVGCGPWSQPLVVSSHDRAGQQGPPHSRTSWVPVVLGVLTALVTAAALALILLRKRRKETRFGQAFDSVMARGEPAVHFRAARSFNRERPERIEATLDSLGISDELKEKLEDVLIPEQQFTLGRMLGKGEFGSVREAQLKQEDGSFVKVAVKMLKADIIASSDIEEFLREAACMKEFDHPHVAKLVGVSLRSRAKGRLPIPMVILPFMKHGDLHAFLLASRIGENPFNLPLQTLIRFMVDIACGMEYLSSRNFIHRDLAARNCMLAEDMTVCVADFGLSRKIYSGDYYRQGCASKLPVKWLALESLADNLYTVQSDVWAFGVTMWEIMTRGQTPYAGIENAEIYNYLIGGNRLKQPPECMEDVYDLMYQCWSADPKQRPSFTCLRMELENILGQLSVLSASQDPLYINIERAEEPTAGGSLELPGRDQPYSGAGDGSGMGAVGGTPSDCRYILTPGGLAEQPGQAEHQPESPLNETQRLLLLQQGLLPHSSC
In words: Microfluidic capillary electrophoresis (MCE) kinase activity assay, Tyro3. The format is biochemical.

A further assay concerns the target T2, MERTK (Homo sapiens, UniProt Q12866).
T2 sequence (Q12866 21-999): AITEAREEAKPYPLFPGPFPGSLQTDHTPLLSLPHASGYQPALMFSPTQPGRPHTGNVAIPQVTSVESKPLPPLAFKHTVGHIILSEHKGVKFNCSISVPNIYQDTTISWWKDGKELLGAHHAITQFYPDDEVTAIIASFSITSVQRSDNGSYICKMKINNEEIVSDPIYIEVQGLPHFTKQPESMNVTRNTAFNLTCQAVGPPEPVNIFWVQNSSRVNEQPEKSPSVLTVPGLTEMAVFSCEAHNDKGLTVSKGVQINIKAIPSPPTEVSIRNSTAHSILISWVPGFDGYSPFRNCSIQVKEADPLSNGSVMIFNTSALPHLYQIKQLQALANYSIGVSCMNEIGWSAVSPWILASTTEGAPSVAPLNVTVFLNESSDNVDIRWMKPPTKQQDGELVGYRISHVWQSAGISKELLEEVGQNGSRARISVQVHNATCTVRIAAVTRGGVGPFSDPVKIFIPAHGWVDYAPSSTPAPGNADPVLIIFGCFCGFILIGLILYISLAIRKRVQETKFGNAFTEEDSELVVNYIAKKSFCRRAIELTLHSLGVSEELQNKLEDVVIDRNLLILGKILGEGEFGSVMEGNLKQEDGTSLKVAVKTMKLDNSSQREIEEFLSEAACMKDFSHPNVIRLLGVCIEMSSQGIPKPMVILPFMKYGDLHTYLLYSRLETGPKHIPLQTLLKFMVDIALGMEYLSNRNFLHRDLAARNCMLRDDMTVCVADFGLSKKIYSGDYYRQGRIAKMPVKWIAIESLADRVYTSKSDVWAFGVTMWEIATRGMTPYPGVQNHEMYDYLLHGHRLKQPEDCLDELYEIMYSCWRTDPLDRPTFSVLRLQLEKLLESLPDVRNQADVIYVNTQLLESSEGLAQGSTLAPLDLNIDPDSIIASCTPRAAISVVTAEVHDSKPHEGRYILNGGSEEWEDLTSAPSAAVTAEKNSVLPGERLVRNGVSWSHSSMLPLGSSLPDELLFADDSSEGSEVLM
The experiment in a line: Microfluidic capillary electrophoresis (MCE) kinase activity assay, Mer. It counts as biochemical.

Experimental for MERTK: (§1) All reactions were terminated by addition of 20 μL of 70 mM EDTA. After a 180 min incubation, phosphorylated and unphosphorylated substrate peptides (Table 6) were separated in buffer supplemented with 1× CR-8 on a LabChip EZ Reader equipped with a 12-sipper chip. Data were analyzed using EZ Reader software.
Experimental for TYRO3: as §1

With `CN1CCN(Cc2ccc(-c3cn([C@H]4CC[C@H](O)CC4)c4nc(Nc5cc(F)cc(Cl)c5)ncc34)cn2)CC1` [Compound 172], the IC50 against TYRO3 (Table 12) and on MERTK (Table 12) was less than 10 nM in each case.

Turning to `CN1CCN(Cc2ccc(-c3cn([C@H]4CC[C@H](N)CC4)c4nc(Nc5cc(F)cc(Cl)c5)ncc34)cc2)CC1` [Compound 164], the IC50 against TYRO3 (Table 10) and against MERTK (Table 10) was less than 10 nM each time.

As to `CN1CCN(Cc2ccc(-c3cn([C@H]4CC[C@H](O)CC4)c4nc(Nc5cc(Cl)cc(C(F)(F)F)c5)ncc34)cc2)CC1` [Compound 148], the IC50 (usually the concentration at which inhibition is half-maximal) at TYRO3 (Table 2, MCE assay, ATP at Km) is less than 10 nM; against MERTK (Table 2, MCE assay, ATP at Km), 10 to 100 nM.

With `CN1CCN(Cc2ccc(-c3cn([C@H]4CC[C@H](O)CC4)c4nc(Nc5cncc(Cl)c5)ncc34)cc2)CC1` [Compound 175], the IC50 is less than 10 nM on TYRO3 (Table 2, MCE assay, ATP at Km) and less than 10 nM on MERTK (Table 2, MCE assay, ATP at Km).

With `CN1CCN(Cc2ccc(-c3cn(C4CC(CO)(CO)C4)c4nc(Nc5cc(C(F)(F)F)cc(C(F)(F)F)c5)ncc34)cc2)CC1` [Compound 165], the IC50 against TYRO3 (Table 10) is less than 10 nM; on MERTK (Table 10) it was 1000 to 30000 nM.

On to `CN1CCN(Cc2ccc(-c3cn([C@H]4CC[C@H](NC(=O)OC(C)(C)C)CC4)c4nc(Nc5cc(F)cc(Cl)c5)ncc34)cc2)CC1` [Compound 163], for which the IC50 is 10 to 100 nM at TYRO3 (Table 10) and 100 to 1000 nM against MERTK (Table 10).

Turning to `CN1CCC(Nc2ccc(-c3cn([C@H]4CC[C@H](O)CC4)c4nc(Nc5cc(F)cc(Cl)c5)ncc34)cc2)CC1` [Compound 56], the IC50 at TYRO3 (Table 8) and against MERTK (Table 8) was less than 10 nM throughout.

As to `CN1CCN(Cc2ccc(-c3cn([C@H]4CC[C@H](O)CC4)c4nc(Nc5ccsc5)ncc34)cc2)CC1` [Compound 174], the IC50 against TYRO3 (Table 2, MCE assay, ATP at Km) is less than 10 nM; at MERTK (Table 2, MCE assay, ATP at Km) it was less than 10 nM.

Turning to `CN1CCN(S(=O)(=O)c2ccc(-c3cn([C@H]4CC[C@H](O)CC4)c4nc(Nc5cc(F)cc(Cl)c5)ncc34)cc2)CC1` [Compound 63], the IC50 against TYRO3 (Table 9) and against MERTK (Table 9) was less than 10 nM each time.

On to `CN1CCN(Cc2ccc(-c3cn([C@H]4CC[C@H](NC(=O)OC(C)(C)C)CC4)c4nc(Nc5cc(C(F)(F)F)cc(C(F)(F)F)c5)ncc34)cc2)CC1` [Compound 161], for which the IC50 against TYRO3 (Table 10) was 10 to 100 nM.

With `CN1CCN(Cc2ccc(-c3cc(C4CCC(=O)CC4)n4nc(Nc5cc(F)cc(Cl)c5)ncc34)cc2)CC1` [Compound 171, 4-(2-((3-chloro-5-fluorophenyl)amino)-5-(4-((4-methylpiperazin-1-yl)methyl)phenyl)pyrrolo[2,1-f][1,2,4]triazin-7-yl)cyclohexan-1-one], the half-maximal inhibitory concentration (IC50) on TYRO3 (Table 11) was less than 10 nM; against MERTK (Table 11), 10 to 100 nM.

Turning to `CN1CCN(Cc2ccc(-c3cc(C4CCC5(CC4)OCCO5)n4nc(Nc5cc(F)cc(Cl)c5)ncc34)cc2)CC1` [Compound 170, N-(3-chloro-5-fluorophenyl)-5-(4-((4-methylpiperazin-1-yl)methyl)phenyl)-7-(1,4-dioxaspiro[4.5]decan-8-yl)pyrrolo[2,1-f][1,2,4]triazin-2-amine], the IC50 against TYRO3 (Table 11) was less than 10 nM; against MERTK (Table 11), 10 to 100 nM.

With `CC1CCN(Cc2ccc(-c3cn([C@H]4CC[C@H](O)CC4)c4nc(Nc5cc(F)cc(Cl)c5)ncc34)cc2)CC1` [Compound 151], the IC50 was less than 10 nM against TYRO3 (Table 2, MCE assay, ATP at Km) and less than 10 nM at MERTK (Table 2, MCE assay, ATP at Km).

On to `CN1CCN(Cc2ccc(-c3cn(C4CCOCC4)c4nc(Nc5cc(F)cc(Cl)c5)ncc34)cc2)CC1` [Compound 160], for which the IC50 at TYRO3 (Table 10) and on MERTK (Table 10) was less than 10 nM each time.

As for `CN1CCN(Cc2ccc(-c3cn([C@H]4CC[C@H](O)CC4)c4nc(Nc5cccc(C(F)(F)F)c5)ncc34)cc2)CC1` [Compound 147], the IC50 was less than 10 nM against TYRO3 (Table 2, MCE assay, ATP at Km) and less than 10 nM against MERTK (Table 2, MCE assay, ATP at Km).

Take `CN1CCN(Cc2ccc(-c3cn([C@H]4CC[C@H](O)CC4)c4nc(Nc5cc(F)cc(C(F)(F)F)c5)ncc34)cc2)CC1` [Compound 149]: the IC50 at TYRO3 (Table 2, MCE assay, ATP at Km) was less than 10 nM; against MERTK (Table 2, MCE assay, ATP at Km) it was less than 10 nM.

`CN1CCN(Cc2ccc(-c3cn([C@H]4CC[C@H](O)CC4)c4nc(Nc5cc(C(F)(F)F)cc(C(F)(F)F)c5)ncc34)cn2)CC1` [Compound 173]: the IC50 on TYRO3 (Table 12) was less than 10 nM; against MERTK (Table 12), 100 to 1000 nM.
